Tests used:
Format in all cases: cell-based
human TLR9 = molecular target: T1, human TLR9 (Homo sapiens, UniProt Q9NR96); assay: TLR9 inhibition reporter assay (HEK-Blue, SEAP); details: HEK-Blue cells overexpressing human TLR9, ligand ODN2006 200 nM, 22 hour incubation
T1 construct: host or cells: HEK-Blue cells
T1 sequence (Q9NR96 26-1032): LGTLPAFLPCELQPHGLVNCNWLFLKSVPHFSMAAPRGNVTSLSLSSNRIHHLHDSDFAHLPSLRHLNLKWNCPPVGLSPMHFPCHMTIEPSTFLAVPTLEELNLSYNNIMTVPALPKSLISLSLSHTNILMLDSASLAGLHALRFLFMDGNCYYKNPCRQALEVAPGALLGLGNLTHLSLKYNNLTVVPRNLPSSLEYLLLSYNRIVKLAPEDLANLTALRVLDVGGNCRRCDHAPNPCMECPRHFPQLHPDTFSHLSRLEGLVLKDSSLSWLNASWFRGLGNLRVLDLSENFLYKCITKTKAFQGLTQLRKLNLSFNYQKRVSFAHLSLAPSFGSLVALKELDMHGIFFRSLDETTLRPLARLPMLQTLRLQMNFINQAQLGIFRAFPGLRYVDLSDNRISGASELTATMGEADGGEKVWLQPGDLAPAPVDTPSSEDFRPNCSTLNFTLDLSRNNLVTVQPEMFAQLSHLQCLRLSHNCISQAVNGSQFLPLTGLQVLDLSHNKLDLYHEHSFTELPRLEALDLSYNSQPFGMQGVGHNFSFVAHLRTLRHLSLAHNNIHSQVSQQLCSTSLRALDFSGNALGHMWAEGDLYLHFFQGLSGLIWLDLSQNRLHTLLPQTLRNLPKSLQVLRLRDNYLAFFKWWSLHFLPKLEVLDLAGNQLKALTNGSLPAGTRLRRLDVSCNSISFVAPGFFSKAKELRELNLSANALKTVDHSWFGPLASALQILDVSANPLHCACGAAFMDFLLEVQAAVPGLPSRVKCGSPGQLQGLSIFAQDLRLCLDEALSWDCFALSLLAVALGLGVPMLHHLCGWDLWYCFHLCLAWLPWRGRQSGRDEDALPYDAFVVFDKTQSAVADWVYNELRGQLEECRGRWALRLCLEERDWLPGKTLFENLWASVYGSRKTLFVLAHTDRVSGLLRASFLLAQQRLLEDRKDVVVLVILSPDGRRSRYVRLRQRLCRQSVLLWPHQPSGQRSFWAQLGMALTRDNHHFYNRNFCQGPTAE
Outline: (§1)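 HEK-Blue cells expressing human TLR7, TLR8 or TLR9 with NF-κB/AP-1-driven SEAP reporter; compounds 0.85 nM–50 μM, pre-treated 60 min. Stimulation: gardiquimod 2.5 μM (TLR7), R848 14.25 μM (TLR8), ODN2006 200 nM (TLR9); SEAP read after 22 h at 37 °C. Percent inhibition normalized between agonist+DMSO and known-inhibitor wells.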

human TLR8 = molecular target: T2, human TLR8 (Homo sapiens, UniProt Q9NR97); assay: TLR8 inhibition reporter assay (HEK-Blue, SEAP); details: HEK-Blue cells overexpressing human TLR8, ligand R848 14.25 μM, 22 hour incubation
T2 construct: host or cells: HEK-Blue cells
T2 sequence (Q9NR97 27-1041): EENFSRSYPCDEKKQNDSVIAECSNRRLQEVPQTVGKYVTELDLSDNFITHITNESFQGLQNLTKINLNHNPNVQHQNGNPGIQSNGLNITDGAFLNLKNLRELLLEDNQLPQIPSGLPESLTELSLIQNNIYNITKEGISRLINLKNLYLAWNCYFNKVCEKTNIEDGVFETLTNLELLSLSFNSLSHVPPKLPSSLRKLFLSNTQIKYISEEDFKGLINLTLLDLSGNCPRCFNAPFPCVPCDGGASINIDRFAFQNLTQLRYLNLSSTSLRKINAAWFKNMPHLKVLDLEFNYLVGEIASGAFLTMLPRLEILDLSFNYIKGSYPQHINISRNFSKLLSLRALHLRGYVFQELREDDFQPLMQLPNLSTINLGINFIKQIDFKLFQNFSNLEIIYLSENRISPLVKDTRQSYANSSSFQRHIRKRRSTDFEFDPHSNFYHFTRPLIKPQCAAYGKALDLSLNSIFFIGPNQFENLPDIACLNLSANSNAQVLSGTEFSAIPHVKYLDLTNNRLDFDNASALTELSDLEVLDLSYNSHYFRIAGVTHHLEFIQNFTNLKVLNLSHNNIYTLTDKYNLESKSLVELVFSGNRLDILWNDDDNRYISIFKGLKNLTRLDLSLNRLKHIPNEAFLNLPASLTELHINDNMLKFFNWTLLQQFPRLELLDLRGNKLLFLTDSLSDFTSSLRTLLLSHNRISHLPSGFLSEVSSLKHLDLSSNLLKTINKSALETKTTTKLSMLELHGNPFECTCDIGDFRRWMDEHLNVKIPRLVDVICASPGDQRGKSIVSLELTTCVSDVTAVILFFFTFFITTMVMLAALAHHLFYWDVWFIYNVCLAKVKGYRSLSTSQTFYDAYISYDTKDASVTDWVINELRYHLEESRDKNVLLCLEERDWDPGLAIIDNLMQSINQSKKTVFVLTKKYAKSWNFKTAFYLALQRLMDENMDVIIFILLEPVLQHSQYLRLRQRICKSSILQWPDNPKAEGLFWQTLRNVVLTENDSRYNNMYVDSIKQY
Outline: as §1

human TLR7 = molecular target: T3, human TLR7 (Homo sapiens, UniProt Q9NYK1); assay: TLR7 inhibition reporter assay (HEK-Blue, SEAP); details: HEK-Blue cells overexpressing human TLR7, ligand gardiquimod 2.5 μM, 22 hour incubation
T3 construct: host or cells: HEK-Blue cells
T3 sequence (Q9NYK1 27-1049): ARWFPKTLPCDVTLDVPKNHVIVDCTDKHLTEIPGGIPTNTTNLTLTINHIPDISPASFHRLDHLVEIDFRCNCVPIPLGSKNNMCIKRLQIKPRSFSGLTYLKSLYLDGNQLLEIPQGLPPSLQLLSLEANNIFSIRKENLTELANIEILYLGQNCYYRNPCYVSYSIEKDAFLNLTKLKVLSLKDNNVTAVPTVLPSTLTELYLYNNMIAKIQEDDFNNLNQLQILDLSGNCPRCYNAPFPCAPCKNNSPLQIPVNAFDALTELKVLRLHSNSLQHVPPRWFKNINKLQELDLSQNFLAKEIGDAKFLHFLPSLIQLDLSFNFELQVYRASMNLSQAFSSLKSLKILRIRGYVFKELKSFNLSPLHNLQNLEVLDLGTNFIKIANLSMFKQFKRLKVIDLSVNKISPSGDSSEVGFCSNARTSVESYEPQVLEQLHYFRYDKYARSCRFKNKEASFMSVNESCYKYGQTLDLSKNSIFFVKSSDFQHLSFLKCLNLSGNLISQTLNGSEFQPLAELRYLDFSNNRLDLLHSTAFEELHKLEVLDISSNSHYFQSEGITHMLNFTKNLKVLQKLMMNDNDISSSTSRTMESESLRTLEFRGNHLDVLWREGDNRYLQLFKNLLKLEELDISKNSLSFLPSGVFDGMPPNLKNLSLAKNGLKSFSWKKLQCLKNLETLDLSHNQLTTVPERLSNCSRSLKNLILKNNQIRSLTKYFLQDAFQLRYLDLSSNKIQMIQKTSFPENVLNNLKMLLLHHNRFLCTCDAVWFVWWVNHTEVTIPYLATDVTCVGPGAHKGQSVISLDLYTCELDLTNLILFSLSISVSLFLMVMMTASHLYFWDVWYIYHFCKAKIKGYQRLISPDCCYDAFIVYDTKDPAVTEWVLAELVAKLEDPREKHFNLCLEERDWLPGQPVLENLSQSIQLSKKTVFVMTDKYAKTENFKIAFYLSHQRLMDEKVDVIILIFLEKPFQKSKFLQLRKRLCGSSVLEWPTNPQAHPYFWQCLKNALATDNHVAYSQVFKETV
Outline: as §1

| SMILES | IC50 (human TLR9) [nM] | IC50 (human TLR8) [nM] | IC50 (human TLR7) [nM] |
| --- | --- | --- | --- |
| Cc1cc(C2CCN(C3CCN(CC4CC4)CC3)CC2)nc2c1nc(-c1ccc(S(C)(=O)=O)cc1)n2C [Example 23, 5-(1′-(cyclopropylmethyl)-[1,4′-bipiperidin]-4-yl)-3,7-dimethyl-2-(4-(methylsulfonyl)phenyl)-3H-imidazo[4,5-b]pyridine] | 61 | > 50000 | 1900 |
| Cc1cc(C2CCN(C3CCN(C4CCC4)CC3)CC2)nc2c1nc(-c1ccc(S(C)(=O)=O)cc1)n2C [Example 24, 5-(1′-cyclobutyl-[1,4′-bipiperidin]-4-yl)-3,7-dimethyl-2-(4-(methylsulfonyl)phenyl)-3H-imidazo[4,5-b]pyridine] | 240 | > 50000 | 5400 |
| Cc1cc(C2CCN(C3CC4CCC(C3)N4C3CCC3)CC2)nc2c1nc(-c1ccc(S(C)(=O)=O)cc1)n2C (stereo not drawn) [Example 33, 5-(1-(8-cyclobutyl-8-azabicyclo[3.2.1]octan-3-yl)piperidin-4-yl)-3,7-dimethyl-2-(4-(methylsulfonyl)phenyl)-3H-imidazo[4,5-b]pyridine] | 69 | 19000 | 1500 |
| COc1ccc(-c2nc3c(C)cc(C4CCN([C@H]5C[C@@H]6CN(CC(C)C)C[C@@H]6C5)CC4)nc3n2C)cc1OC [Example 37, 2-(3,4-dimethoxyphenyl)-5-(1-(2-isobutyloctahydrocyclopenta[c]pyrrol-5-yl)piperidin-4-yl)-3,7-dimethyl-3H-imidazo[4,5-b]pyridine] | 100 | > 50000 | 1200 |
| COc1ccc(-c2nc3c(C)cc(C4CCN([C@H]5C[C@@H]6CN(CC7CC7)C[C@@H]6C5)CC4)nc3n2C)cc1OC [Example 38, 5-(1-(2-(cyclopropylmethyl)octahydrocyclopenta[c]pyrol-5-yl)piperidin-4-yl)-2-(3,4-dimethoxyphenyl)-3,7-dimethyl-3H-imidazo[4,5-b]pyridine] | 80 | > 50000 | 740 |

Further compounds by falling IC50 (human TLR9), results first:

| IC50 (human TLR9) [nM] | IC50 (human TLR8) [nM] | IC50 (human TLR7) [nM] | SMILES |
| --- | --- | --- | --- |
| 220 | > 50000 | 1300 | COc1ccc(-c2nc3c(C)cc(C4CCN([C@H]5C[C@@H]6CN(C7CCOCC7)C[C@@H]6C5)CC4)nc3n2C)cc1OC [Example 40, 2-(3,4-dimethoxyphenyl)-3,7-dimethyl-5-(1-(2-(tetrahydro-2H-pyran-4-yl)octahydrocyclopenta[c]pyrrol-5-yl)piperidin-4-yl)-3H-imidazo[4,5-b]pyridine] |
| 140 | > 50000 | 1000 | COc1ccc(-c2nc3c(C)cc(C4CCN([C@H]5C[C@@H]6CN(C(C)C)C[C@@H]6C5)CC4)nc3n2C)cc1OC [Example 36, 2-(3,4-dimethoxyphenyl)-5-(1-((3aR,5s,6aS)-2-isopropyloctahydrocyclopenta[c]pyrrol-5-yl)piperidin-4-yl)-3,7-dimethyl-3H-imidazo[4,5-b]pyridine] |
| 130 | 24000 | 310 | COc1ccc(-c2nc3c(C)cc(C4CCN([C@H]5C[C@@H]6CN(C7CCC7)C[C@@H]6C5)CC4)nc3n2C)cc1OC [Example 39, 5-(1-(2-cyclobutyloctahydrocyclopenta[c]pyrrol-5-yl)piperidin-4-yl)-2-(3,4-dimethoxyphenyl)-3,7-dimethyl-3H-imidazo[4,5-b]pyridine] |
| 42 | > 50000 | 4100 | Cc1cc(C2CCN(C3CCN(C4CCOCC4)CC3)CC2)nc2c1nc(-c1ccc(S(C)(=O)=O)cc1)n2C [Example 25, 3,7-dimethyl-2-(4-(methylsulfonyl)phenyl)-5-(1′-(tetrahydro-2H-pyran-4-yl)-[1,4′-bipiperidin]-4-yl)-3H-imidazo[4,5-b]pyridine] |
| 42 | > 50000 | 1600 | Cc1cc(C2CCN(C3CC4CCC(C3)N4C3CCC3)CC2)nc2c1nc(-c1ccc(S(C)(=O)=O)cc1)n2C (stereo not drawn) [Example 32, 5-(1-(8-cyclobutyl-8-azabicyclo[3.2.1]octan-3-yl)piperidin-4-yl)-3,7-dimethyl-2-(4-(methylsulfonyl)phenyl)-3H-imidazo[4,5-b]pyridine] |

From patent publication US20250177363A1, “SUBSTITUTED IMIDAZOPYRIDINYL COMPOUNDS USEFUL AS INHIBITORS OF TLR9” (Bristol-Myers Squibb Company, priority 2022, published 2025)
